From patent publication US20250143299A1, “METHODS AND COMPOSITIONS FOR CONTROLLING PESTS IN VEGETABLES” (Globachem NV, priority 2022, published 2025)

Columns and labels:
Format in all cases: in vivo
Conditions in all cases: appl. AB
[1] = system: Leptinotarsa decemlineata; test: Example 8 Trial 2 potato, Leptinotarsa decemlineata (LEPTNDE) control
Source text: Trial 2: Potatoes, 4 replicates per plot, each plot at least 25 m^2. A water volume of 200 L water/ha was used for each application. Two applications were made at a 14d interval.
Application made at the occurrence of the insects. Application A was made at Stage BBCH 39-41, application B was made 14 days later at Stage BBCH 41-44.
Insects present at the time of application: at App A: 9/10 plants at App B in untreated: 44/10 plants

Myzus persicae = test: Example 10 potato trial, Myzus persicae (green aphids, MYZUPE) control
Source text: Potatoes—Myzus persicae (Green Aphids)—MYZUPE
Potatoes, variety Agata, 4 replicates per plot. A water volume of 200 L water/ha was used for each application. Two applications were made at a 14d interval.
Application made at the occurrence of the insects. Application A was made at Stage BBCH 38-41, application B was made 14 days later at Stage BBCH 41-43.
Insects present at the time of application: at App A 93 aphids per 25 leaves at App B in untreated: 160 aphids per 25 leaves

Diabrotica speciosa = test: Example 11 Trial 2 potato, Diabrotica speciosa (DIABSC) control
Source text: Potatoes—Diabrotica speciosa (Cucurbit Beetle)—DIABSC A water volume of 400 L water/ha was used for each application. Application A made at the occurrence of the insects; application B was made 7 days later. Each plot was 15 m^2. 5.15 insects per 20 plants were present at the time of application.

CCCCCCCCC(=O)O [PA, pelargonic acid]
COUINS # L1-L3/10 plants ([1]; 975 g/ha (1.5 L/ha), 10 DAB): 76 % UNCK
COUINS # L4/10 plants ([1]; 975 g/ha (1.5 L/ha), 10 DAB): 77 % UNCK
COUINS Adults/10 plants ([1]; 975 g/ha (1.5 L/ha), 10 DAB): 55 % UNCK
COUINS # L1-L3/10 plants ([1]; 1300 g/ha (2.0 L/ha), 7 DAA): 70.9 % UNCK
COUINS # L4/10 plants ([1]; 1300 g/ha (2.0 L/ha), 7 DAA): 59.9 % UNCK
COUINS # L1-L3/10 plants ([1]; 1300 g/ha (2.0 L/ha), 10 DAB): 89.8 % UNCK
COUINS # L4/10 plants ([1]; 1300 g/ha (2.0 L/ha), 10 DAB): 86.2 % UNCK
COUINS Adults/10 plants ([1]; 1300 g/ha (2.0 L/ha), 10 DAB): 69 % UNCK
COUINS # L1-L3/10 plants ([1]; 2600 g/ha (4.0 L/ha), 7 DAA): 73.4 % UNCK
COUINS # L4/10 plants ([1]; 2600 g/ha (4.0 L/ha), 7 DAA): 80.9 % UNCK
COUINS # L1-L3/10 plants ([1]; 2600 g/ha (4.0 L/ha), 10 DAB): 93.4 % UNCK
COUINS # L4/10 plants ([1]; 2600 g/ha (4.0 L/ha), 10 DAB): 92.8 % UNCK
COUINS Adults/10 plants ([1]; 2600 g/ha (4.0 L/ha), 10 DAB): 78.9 % UNCK
COUINS, #/25 leaves (Myzus persicae; 585 g/ha (0.9 L/ha), 3 DAA): 38.8 % UNCK
COUINS, #/25 leaves (Myzus persicae; 585 g/ha (0.9 L/ha), 3 DAB): 68.8 % UNCK
COUINS, #/25 leaves (Myzus persicae; 585 g/ha (0.9 L/ha), 7 DAA): 48.7 % UNCK
COUINS, #/25 leaves (Myzus persicae; 585 g/ha (0.9 L/ha), 7 DAB): 68.4 % UNCK
COUINS, #/25 leaves (Myzus persicae; 585 g/ha (0.9 L/ha), 14 DAA): 52.3 % UNCK
COUINS, #/25 leaves (Myzus persicae; 585 g/ha (0.9 L/ha), 14 DAB): 73.4 % UNCK
COUINS, #/25 leaves (Myzus persicae; 975 g/ha (1.5 L/ha), 3 DAA): 42.9 % UNCK
COUINS, #/25 leaves (Myzus persicae; 975 g/ha (1.5 L/ha), 3 DAB): 72.6 % UNCK
COUINS, #/25 leaves (Myzus persicae; 975 g/ha (1.5 L/ha), 7 DAA): 51.2 % UNCK
COUINS, #/25 leaves (Myzus persicae; 975 g/ha (1.5 L/ha), 7 DAB): 72.4 % UNCK
COUINS, #/25 leaves (Myzus persicae; 975 g/ha (1.5 L/ha), 14 DAA): 54.9 % UNCK
COUINS, #/25 leaves (Myzus persicae; 975 g/ha (1.5 L/ha), 14 DAB): 73.2 % UNCK
COUINS, #/25 leaves (Myzus persicae; 1300 g/ha (2.0 L/ha), 3 DAA): 61.9 % UNCK
COUINS, #/25 leaves (Myzus persicae; 1300 g/ha (2.0 L/ha), 3 DAB): 86.1 % UNCK
COUINS, #/25 leaves (Myzus persicae; 1300 g/ha (2.0 L/ha), 7 DAA): 63.9 % UNCK
COUINS, #/25 leaves (Myzus persicae; 1300 g/ha (2.0 L/ha), 7 DAB): 86.1 % UNCK
COUINS, #/25 leaves (Myzus persicae; 1300 g/ha (2.0 L/ha), 14 DAA): 67.3 % UNCK
COUINS, #/25 leaves (Myzus persicae; 1300 g/ha (2.0 L/ha), 14 DAB): 86.5 % UNCK
COUINS, #/25 leaves (Myzus persicae; 2600 g/ha (4.0 L/ha), 3 DAA): 68.4 % UNCK
COUINS, #/25 leaves (Myzus persicae; 2600 g/ha (4.0 L/ha), 3 DAB): 92.6 % UNCK
COUINS, #/25 leaves (Myzus persicae; 2600 g/ha (4.0 L/ha), 7 DAA): 70.8 % UNCK
COUINS, #/25 leaves (Myzus persicae; 2600 g/ha (4.0 L/ha), 7 DAB): 92.5 % UNCK
COUINS, #/25 leaves (Myzus persicae; 2600 g/ha (4.0 L/ha), 14 DAA): 74.2 % UNCK
COUINS, #/25 leaves (Myzus persicae; 2600 g/ha (4.0 L/ha), 14 DAB): 92.4 % UNCK
# Insects, 20 plants (Diabrotica speciosa; 487.5 g/ha (0.75 L/ha), 3 DAA): 38.10b % UNCK
# Insects, 20 plants (Diabrotica speciosa; 487.5 g/ha (0.75 L/ha), 3 DAB): 25.00ab % UNCK
# Insects, 20 plants (Diabrotica speciosa; 650 g/ha (1 L/ha), 3 DAA): 61.90bc % UNCK
# Insects, 20 plants (Diabrotica speciosa; 650 g/ha (1 L/ha), 3 DAB): 25.00ab % UNCK
# Insects, 20 plants (Diabrotica speciosa; 975 g/ha (1.5 L/ha), 7 DAA): 100.00d % UNCK
# Insects, 20 plants (Diabrotica speciosa; 975 g/ha (1.5 L/ha), 7 DAB): 100.00c % UNCK
# Insects, 20 plants (Diabrotica speciosa; 975 g/ha (1.5 L/ha), 10 DAB): 100.00c % UNCK
